Measured values from patent publication US8680094B2, “1, 4-benzoxazine compounds and derivatives thereof as therapeutic drugs for the treatment of neurodegenerative conditions” (Board of Regents, The University of Texas System, priority 2008, dated 2014).

How the values were obtained:
primary cortical neurons [1] = assay: HCA-induced neurotoxicity in primary cortical neurons; type: cell-based, rat
primary cortical neurons [2] = assay: Aβ-induced death of primary cortical neurons; type: cell-based, rat; conditions: 5 uM aged Aβ25-35; viability 24 hours later
Procedure: Primary cultures of cortical neurons were cultured from embryonic day 18 rats. The cultures were treated 1-2 days later with 5 uM of aged Aβ peptide (Aβ25-35; purchased from Sigma-Aldrich). Neuronal viability was assayed 24 hours later.

[3] = test system: 3-NP-induced mouse model of Huntington's disease; assay: 3-nitropropionic acid (3-NP)-induced mouse model of Huntington's disease; type: in vivo
Procedure: 3-Nitropropionic acid administration and behavioral evaluation was done on 8-week old C57BL/6 male mice (Charles River Laboratories, Inc, Wilmington, Mass.) administered with 3-NP in ten intraperitoneal injections (50 mg/kg twice a day for 5 days) with or without HSB-13 (2 mg/kg). Injections of HSB-13 were performed 30 min before 3-NP administration. Control animals received saline injections. On the day following the 5 days of injection, locomotor activity was assessed using The TRU-SCAN® activity monitoring system (Coulborn Instruments, PA) as previously described (Chin et al., 2004; Chen et al., 2008b). The following behavioral parameters were selected: (1) Total movements time, (2) Total movement distance: the sum of all vectored X-Y coordinate changes in the floor plane, (3)Average distance per movement, (4) Mean velocity: the mean velocity of all X-T coordinate change defined movements. Following behavioral evaluation, the mice were deeply anesthetized and brains removed. The brains were fixed in 4% paraformaldehyde in 0.1 M phosphate buffer and cryoprotected in 20% sucrose in 0.1 M phosphate buffer. Coronal sections were cut on a cryostat at 40 microns and stained with cresyl violet (Sigma-Aldrich) as previously described (Chin et al., 2004; Chen et al., 2008b).
3-Nitropropionic acid administration and behavioral evaluation. 8-week old C57BL/6 male mice (Charles River Laboratories, Inc, Wilmington, Mass.) were administered with 3-NP in ten intraperitoneal injections (50 mg/kg twice a day for 5 days) with or without HSB-13 […]). Injections of HSB-13 were performed ˜30 min before 3-NP administration. Control animals received saline injections. On the day following the 5 days of injection, locomotor activity was assessed using THE TRU-SCAN® activity monitoring system (Coulborn Instruments, PA) as previously described (Chin et al. 2004). The following behavioral parameters were selected: (i) Total movements episodes: each movement in the floor plane is a series of coordinate changes with no rest for at least 1 sample interval, (2) Total movement distance: the sum of all vectored X-Y coordinate changes in the floor plane, and (3) Mean velocity: the mean velocity of all X-T coordinate change defined movements. Following behavioral evaluation, the mice were deeply anesthetized and brains removed. The brains were fixed in 4% paraformaldehyde in 0.1 M phosphate buffer and cryoprotected in 20% sucrose in 0.1 M phosphate buffer. Coronal sections were cut on a cryostat at 50 microns and stained with cresyl violet (Sigma).

Q: Which results are given for Nc1ccc2c(c1)NC(=O)/C(=C/c1cc(Br)c(O)c(Br)c1)O2 [HSB-13, (Z)-6-amino-2-(3,′5′-dibromo-4′-hydrozybenzylidene)-2H-benzo[b][1,4]oxazin-3(4H)-one]?
A: protection against HCA-induced neurotoxicity (primary cortical neurons [1]): protects; protection against Aβ toxicity (primary cortical neurons [2]): protects; 3-NP-induced striatal degeneration (cresyl violet histology) ([3]; HSB-13 2 mg/kg body weight, 30 min before each 3-NP injection (50 mg/kg i.p. twice a day, 5 days), FIG. 7A): substantially reduced; locomotor performance: total movement time, total movement distance, average distance per movement, mean velocity ([3]; HSB-13 2 mg/kg, versus 3-NP alone, 15 min period, FIG. 7B): markedly higher; 3-NP-induced striatal degeneration (cresyl violet histology) ([3]; HSB-13 2.5 mg/kg body weight, FIG. 10A): substantially reduced; locomotor performance: total movement episodes, total movement distance, mean velocity ([3]; HSB-13 2.5 mg/kg, versus 3-NP alone, FIG. 10B): markedly higher
